Test results reported in patent publication US10463610B2, “Composition comprising diacid derivatives and their use in the treatment of collagenic eye disorders” (THE UNIVERSITY OF LIVERPOOL, priority 2015, dated 2019).

Test system: pig corneas
Assay: Tensile test (stiffness) of pig corneas after treating whole eye globes with cross-linking solution
Details: Experiment 1: diacid/NHS/EDCI solution in PBS with excess EDCI, 30 minutes incubation at 37° C., n=3 (FIG. 1)
Description: Pig eyes were collected from the abattoir on the day of slaughter. They were brought to the laboratory and any remaining soft tissue was carefully dissected away leaving just globe and the small section of optic nerve. These were washed 3 times in PBS. A drop of fluorescein dye (1% diluted 1:10 in PBS) was applied to the cornea of each eye to evaluate the integrity of the corneal epithelium (as used in the clinic). The globes were then washed again in PBS 3 times.
The globes were mounted individually on Perspex rings and placed corneal side down in 6-well cell culture plates. This ensured that the eyes were balanced stably and that the corneal surface was exposed in a controlled manner to the cross-linking solution.
Dissolve 575 mg of NHS and 775 mg of EDCI in 22.5 ml of PBS. Dissolve 500 mg Sebacic acid (decanedioic acid) or 435 mg of Suberic acid (octanedioic acid) or 365 mg of Adipic acid (hexanedioic acid) in 2.5 ml of PBS. Add each diacid solution to 22.5 ml of NHS/EDCI solution.
Experiments 2 and 3 used a Molar ratio of […] of suberic:NHS:EDCI using 319 mg NHS, 430 mg EDCI and 241 mg suberic acid. NHS/EDCI dissolved first in 7.5 ml PBS and suberic acid dissolved in 7.5 ml PBS with the addition of 500 ul DMAE to aid solubility. The two solution were added to each other and made up to 15 ml if necessary.
Add diacid/NHS/EDCI solution (4-5 ml) to 3 eyes for each diacid and add PBS (4-5 ml) to 3 eyes as control. Incubate for 30 minutes at 37° C. After 30 minutes, wash off solution with PBS (5 times).
Add suberic acid/NHS/EDCI solution (4-5 ml) to 3 eyes and add PBS (4-5 ml) to 3 eyes as control. […]
Since the cross-linking chemistry is based on EDCI/NHS mediated chemistry, the individual active moieties being used (EDCI and NHS) in the treatment solution are chemically able to crosslink proteins. The ability at which the individual chemicals are able to increase the biomechanical property of the cornea was assessed. Corneas were prepared, the masses of all the chemicals were measured out, and the corneas were treated as described above. […]

First: O=C(O)CCCCCCCCC(=O)O [Sebacic acid, decanedioic acid]
Second: O=C(O)CCCCCCC(=O)O [suberic acid, octanedioic acid]
The “increase in stiffness compared to the untreated control corneas” value of the first is lower: 54.8% for the first, 84.9% for the second.

In the case of `O=C(O)CCCCC(=O)O` [adipic acid, hexanedioic acid], the “increase in stiffness compared to the untreated control corneas” value is reported as 63.6%.
